For data set [1], the system named is DAOY (human medulloblastoma cell strain). Description: MTT assay, growth inhibition against human medulloblastoma cells (Example 3). More on the design: dose or concentration left out as unconfirmed. In kind it is cell-based. The note with it: final concentration 200. How it is done:
Compounds: No. 5, No. 15, No. 23, NCR 6, NCR 7, NCR 11, NCR 13, NCR 14, NCR 15
Cell: DAOY (human medulloblastoma cell strain)
(§1) Medium: DMEM (High Glucose, Nacalai Tesque)
Reagent for cell counting: MTT cell counting kit (Nacalai Tesque) *Hereinafter, referred to as MTT assay.
DAOY was plated on three 96-well plates at 5×10^3 cells/well. These three plates were for use on day 0, day 1 and day 3, respectively. As a medium, 10% FBS-containing DMEM was used.
The medium in the plate for day 0 was exchanged with 5% FBS-containing DMEM, and cells were cultured therein for 30 minutes. Then, MTT assay was carried out to measure the activity at the basal cell count.
With respect to the plates for day 1 and day 3, the medium was exchanged with 5% FBS-containing medium, and the compound was added simultaneously at this time (as a control, DMSO (the solvent) alone was added).
MTT assay was carried out using the plate for day 1.
MTT assay was carried out using the plate for day 3.
Relative growths on day 1 and day 3 were calculated, with the average of MTT activities (Ab 570 nm) […] in the rows of wells for the respective compounds being taken as 100. Each experiment was performed in quadruple.
Statistical test was performed by compound-treated cells and DMSO-treated cells.
For orientation: Tetrazolium assays rely on reduction of a dye to a coloured formazan, in cell work by metabolically active cells.

The subject of data set [2] is neuropathic pain model by partial sciatic nerve ligation. Description: Thermal paw withdrawal test, morphine resistance after nerve injury. The format is in vivo, C57BL male mice. The note with it: compound 0.5 nmol i.t. from 3 days after injury; morphine 30 nmol i.pl. 5 days after injury.
Data set [3] shares this test system. Description: Electrical stimulation-induced paw withdrawal (EPW) test, hypoesthesia after nerve injury. In kind it is in vivo, C57BL male mice. The settings on record: 0.5 nmol i.t. once per day from 3 days after nerve injury; observed 4 and 5 days after injury.
In data set [4] the test system is DAOY (human medulloblastoma cell strain). Description: MTT assay using a human medulloblastoma cell strain (Example 2, relative growth). In kind it is cell-based. The settings on record: DAOY cells.
Source text: Cell growth effects were examined on 3,5-dimethylpiperidyl 3-methyl-4-nitrophenyl ketone (compound 155) and 1-[4-(difluoromethoxy)phenyl]-2-(3,5-dimethylpiperidyl)ethan-1-one (compound A28) (MTT assay using a human medulloblastoma cell strain).
Compounds: 3,5-dimethylpiperidyl 3-methyl-4-nitrophenyl ketone (compound 155) (purchased from SPECS); 1-[4-(difluoromethoxy)phenyl]-2-(3,5-dimethylpiperidyl)ethan-1-one (compound A28) (purchased from Enamine)
Cell: DAOY (human medulloblastoma cell strain) (provided by Kanno, Department of Neurosurgery, School of Medicine, Yokohama City University)
as §1
Reagent for cell counting: MTT cell counting kit (Nacalai Tesque) MTT Assay: (operations)
Day −1: DAOY was plated on three 96-well plates at 5×10^3 cells/well. These three plates were for use on day 0, day 1 and day 3, respectively. As a medium, 10% FBS-containing DMEM was used.
Day 0: MTT assay was carried out using the plate for day 0 to measure the activity at the basal cell count. With respect to the plates for day 1 and day 3, the compound was added to give a concentration of 100 μg/ml (as controls, DMEM alone and DMEM containing DMSO (solvent) were used). Specifically, the compound-containing DMEM was prepared in advance, and the compound was added to the plate through medium exchange. At this time, FBS concentration was lowered to 5% in order to prevent the masking of the compound's effect due to excessive growth signals. Day 1: MTT assay was carried out using the plate for day 1. Day 3: MTT assay was carried out using the plate for day 3. Data Analysis: Relative growths on day 1 and day 3 were calculated, with the average of MTT activities (Ab 570 nm) on day 0 in the rows of wells for addition of the respective compounds being taken, as 100.
Each experiment was performed in quadruple and each run was repeated three times. Relative values based on the values of day 0 were used to calculate data for n=12 wells and statistical tests were performed.
Test was by t-test between the cell count with DMEM alone and the cell count with the compound or DMSO.
MIT Assay: A technique for cell counting using the respiratory activity of mitochondria as an indicator. When the respiratory activity is high (the value at Ab 570 nm is high), it can be interpreted that the cell count is large.

Data set [5] concerns Nav 1.8. Description: Quantitative real time PCR of Nav 1.8 mRNA in dorsal root ganglia after nerve injury. The format is in vivo, C57BL male mice. The note with it: 0.5 nmol i.t., single administration 3 days after nerve injury. On the technique in general: Real-time PCR tracks product formation cycle by cycle.
Data set [6] relates to MOP. Kind of data set: Quantitative real time PCR of MOP mRNA in dorsal root ganglia after nerve injury. The format is in vivo, C57BL male mice. The note with it: 0.5 nmol i.t., single administration 3 days after nerve injury; 3, 6 and 12 hours after administration; n=3; tendency.
Where [7] appears, read: Day 0, basal cell count before compound addition.
Setting [8] is: Day 1, compound 100 μg/ml, 5% FBS DMEM.

For the molecule `Cc1cc(CN2CC(C)CC(C)C2)ccc1[N+](=O)[O-]` (stereo not drawn) [NCR 7, 3,5-Dimethyl-1-(3-Methyl-4-Nitrobenzyl)piperidine], the “cytotoxicity (MTT assay)” value in data set [1] is given as “cytotoxicity was observed”.

Regarding `CC1CC(C)CN(C(=O)c2ccc([N+](=O)[O-])cc2)C1` (stereo not drawn) [NCR-2, 3,5-Dimethyl-1-(4-Nitrobenzoyl)piperidine], the melting point lay within 120 to 125 °C.

`Cc1cc(C(=O)N2CCCC(C)C2)ccc1[N+](=O)[O-]` (stereo not drawn) [NCR-3, 3-Methyl-1-(3-Methyl-4-Nitrobenzoyl)piperidine] had a melting point of 82 to 82.8 °C.

The molecule `CC1CCCN(C(=O)c2ccc([N+](=O)[O-])cc2)C1` (stereo not drawn) [NCR-4, 3-Methyl-1-(4-Nitrobenzoyl)piperidine] yielded a melting point of 70.2 to 71.3 °C.

As to `CC1CC(C)CN(C(=O)c2ccccc2)C1` (stereo not drawn) [NCR-6, 1-(Benzoyl)-3,5-Dimethyl piperidine], the melting point was in the range of 107.2 to 108.7 °C.

Take `Cc1cc(C(=O)N2CCCCC2)ccc1[N+](=O)[O-]` [NCR-8, 1-(3-Methyl-4-Nitrobenzoyl)piperidine]: the melting point is 71.7 to 72.2 °C.

The molecule `CCN(CC)C(=O)c1ccc([N+](=O)[O-])c(C)c1` [NCR-9, N,N-Diethyl-3 Methyl-4-Nitrobenzamide] returned a melting point of 74.5 to 76 °C.

Molecule `CC1CC(C)CN(C(=O)c2ccc(Cl)cc2)C1` (stereo not drawn) [NCR-11, 3,5-Dimethyl-1-(4-Chlorobenzoyl)piperidine] showed a melting point of 113.5 to 115.4 °C.

In turn, `Cc1cc(S(=O)(=O)N2CC(C)CC(C)C2)ccc1[N+](=O)[O-]` (stereo not drawn) [NCR-12, 3,5-Dimethyl-1-[(3-Methyl-4-Nitrophenyl)sulfonyl]piperidine] displayed a melting point of 132.7 to 138.5 °C.

`Cc1cc(C(=O)N(C(C)C)C(C)C)ccc1[N+](=O)[O-]` [NCR-15, N,N-Diisopropyl-3-Methyl-4-Nitrobenzamide] gave a melting point of 107.6 to 109.7 °C.

Take `Cc1cc(C(=O)N2C(C)CCCC2C)ccc1[N+](=O)[O-]` (stereo not drawn) [NCR-17, 2,6-Dimethyl-1-(3-Methyl-4-Nitrobenzoyl)piperidine]: the melting point fell in the range of 99.7 to 100.5 °C.

For `Cc1cc(C(=O)N(Cc2ccccc2)Cc2ccccc2)ccc1[N+](=O)[O-]` [NCR-18, N,N-Dibenzyl-3-Methyl-4-Nitrobenzamide], the melting point was in the range of 105.8 to 108.7 °C.

Turning to `Cc1cc(C(=O)N2CCCC2)ccc1[N+](=O)[O-]` [NCR-19, 1-(3-Methyl-4-Nitrobenzoyl)pyrrolidine], the melting point was in the range of 61.3 to 61.9 °C.

As for `Cc1cc(C(=O)NC2CCCCC2)ccc1[N+](=O)[O-]` [NCR-22, N-Cyclohexyl-3-Methyl-4-Nitrobenzamide], the melting point was in the range of 134.2 to 141 °C.

Turning to `CC(C)CCNC(=O)CCC(=O)NCc1ccc(F)cc1` [compound 106, N-[(4-fluorophenyl)methyl]-N′-(3-methylbutyl)butane-1,4-diamide], in data set [2], the “peripheral morphine analgesia after nerve injury, thermal paw withdrawal test” value was “morphine analgesia was hardly recognized”. Besides, in data set [3], the “effect on hypoesthesia (pain threshold in response to C-fiber stimulation), EPW test” value is given as “no effect on pain threshold”.

Consider `Cc1cc(C(=O)N2CC(C)CC(C)C2)ccc1[N+](=O)[O-]` (stereo not drawn) [compound 155, 3,5-dimethylpiperidyl 3-methyl-4-nitrophenyl ketone], for which the “Relative Growth (MTT activity, Ab 570 nm, day 0 average taken as 100)” value in data set [4] (setting [7]) was determined as 100.00 ± 5.08; in data set [4] (setting [8]), 123.16 ± 10.03; in data set [4] (Day 3, compound 100 μg/ml, 5% FBS DMEM), 105.07 ± 17.53.

`CC1CC(C)CN(CC(=O)c2ccc(OC(F)F)cc2)C1` (stereo not drawn) [compound A28, 1-[4-(difluoromethoxy)phenyl]-2-(3,5-dimethylpiperidyl)ethan-1-one]: in data set [5], the “time needed for the effect on Nav 1.8 and MOP expression to appear” value was 3 to 6 h. Moreover, the “recovery of the lowering of expression of Nav 1.8 after nerve injury” value in data set [5] (3, 6 and 12 hours after administration, n=3, tendency) is recorded as 10-15%. Besides, in data set [6], the “recovery of the lowering of expression of MOP after nerve injury” value is 10-15%. The “Relative Growth (MTT activity, Ab 570 nm, day 0 average taken as 100)” value is given as 100.00 ± 6.56 in data set [4] (setting [7]) and 233.28 ± 1.69 in data set [4] (setting [8]).

As usually defined, the melting point is the temperature of the solid-liquid transition.

Values taken from patent US9206125B2, “Use of compound binding to mSin3B that specifically binds to neuron restrictive silencer factor (NRSF)” (PUBLIC UNIVERSITY CORPORATION YOKOHAMA CITY UNIVERSITY, priority 2010, dated 2015).
